{"source": "paper PMC12299598", "about": "(Pharmaceuticals, 2025)", "origin": "cited, not measured here", "key": {"[1]": {"tested_on": "patients treated with ibrutinib", "parameters": "method as in PMID 29419429"}, "[2]": {"tested_on": "patients exposed to ibrutinib"}, "[3]": {"parameters": "method as in PMID 38955074"}, "[4]": {"tested_on": "CYP3A4", "parameters": "method as in PMID 1764870"}, "[5]": {"tested_on": "BTK", "settings": "lower than ibrutinib"}}, "note": "Like-named read-outs stand apart in the source and are kept apart here."}
{"smiles": "C=CC(=O)N1CCC[C@@H](n2nc(-c3ccc(Oc4ccccc4)cc3)c3c(N)ncnc32)C1", "note": "[ibrutinib]", "values": [{"measurement": "Absolute oral bioavailability", "setting": "fasting conditions", "result": 3.9, "unit": "%"}, {"measurement": "Time to peak concentration", "setting": "oral administration", "result": "1 to 2", "unit": "h"}, {"measurement": "Absolute oral bioavailability", "setting": "with standard breakfast", "result": 8.4, "unit": "%"}, {"measurement": "Toxicity leading to discontinuation: arthralgia", "setting": "[1]; front-line ibrutinib", "result": 41.6, "unit": "%"}, {"measurement": "Toxicity leading to discontinuation: atrial fibrillation", "setting": "[1]; front-line ibrutinib", "result": 25, "unit": "%"}, {"measurement": "Toxicity leading to discontinuation: rash", "setting": "[1]; front-line ibrutinib", "result": 16.7, "unit": "%"}, {"measurement": "Toxicity leading to discontinuation: atrial fibrillation", "setting": "[1]; relapsed/refractory population", "result": 12.3, "unit": "%"}, {"measurement": "Toxicity leading to discontinuation: bleeding", "setting": "[1]; relapsed/refractory population", "result": 9, "unit": "%"}, {"measurement": "Toxicity leading to discontinuation: diarrhea", "setting": "[1]; relapsed/refractory population", "result": 6.6, "unit": "%"}, {"measurement": "Toxicity leading to discontinuation: infection", "setting": "[1]; relapsed/refractory population", "result": 10.7, "unit": "%"}, {"measurement": "Toxicity leading to discontinuation: pneumonitis", "setting": "[1]; relapsed/refractory population", "result": 9.9, "unit": "%"}, {"measurement": "Cardiovascular deaths linked to ibrutinib", "setting": "[2]", "result": 303}, {"measurement": "Mortality rate of cardiovascular ADRs", "setting": "[2]; CNS events and heart failure", "result": 20, "unit": "%"}, {"measurement": "Mortality rate of cardiovascular ADRs", "setting": "[2]; supraventricular and ventricular arrhythmias", "result": 8, "unit": "%"}, {"measurement": "Mortality rate", "setting": "[2]; supraventricular arrhythmias with concurrent CNS events", "result": 28.8, "unit": "%"}, {"measurement": "Permeability", "setting": "[3]", "result": "high"}, {"measurement": "Solubility", "setting": "[3]", "result": "low"}]}
{"smiles": "COc1ccc2[nH]c([S+]([O-])Cc3ncc(C)c(OC)c3C)nc2c1", "note": "(stereo not shown) [omeprazole]", "values": [{"measurement": "CYP3A4 inhibitor strength", "setting": "[4]", "result": "weak"}]}
{"smiles": "Nc1ncnc2c1c(-c1ccc(Oc3ccccc3)cc1)nn2C1CCCN(C(=O)C(O)CO)C1", "note": "(stereo not shown) [dihydrodiol metabolite]", "values": [{"measurement": "BTK inhibitory activity relative to ibrutinib", "setting": "[5]", "result": 15, "unit": "fold"}]}
